Experimental data as given in US9505798B2, “Steroid compounds as RORyt modulators and uses thereof” (New York University, priority 2010, dated 2016).

Test system: gut (large intestine) Th17 cells
Assay: DSS-induced model relating to intestinal bowel diseases
Format: in vivo, mouse
Parameters: dose or concentration left out as unconfirmed
Conditions: IP daily, day 7
Procedure: Th17 cells were induced by Dextran Sulfate Sodium (DSS) treatment, a chemical agent that causes intestinal epithelial injury, and thus, is often used to generate an animal model that mimics many aspects of intestinal bowel diseases. […] Gut associated mononuclear cells were collected and their cytokine expression was analyzed on day 7. Representative FACS plots (gated on CD4^+CD3^+TCRβ^+CD19^− cells) from each group are shown (left).
B6 wild-type mice received 2% DSS (Dextran Sulfate Sodium) ad libitum in drinking water for 7 days. […] Gut associated cells were collected and activated for cytokine straining on day 7. To isolate cells from the small intestinal lamina propria, Peyer's patches, fat and mesenterium were removed before opening the intestine longitudinally. The tissue was cut into 2 cm pieces and washed in calcium- and magnesium-free PBS (Gibco). The tissue was then washed for 10 minutes in cold 1 mM DTT (Sigma) in PBS then two 10 minute washes in 30 mM EDTA, 10 mM HEPES (Gibco) in PBS at 37° C. The tissue was washed with complete RPMI and digested for 1.5 hr at 37° C. in 5% CO2, humidified atmosphere, in complete RPMI containing 100 U ml-1 type VIII collagenase (Sigma) and 150 μg ml—1 DNaseI (Sigma). After digestion, cells were eluted from the tissue by shaking. Live cells were isolated using a Percoll (Pharmacia) gradient. […]

SMILES: C[C@H]1O[C@@H](O[C@H]2[C@@H](O)C[C@H](O[C@H]3[C@@H](O)C[C@H](O[C@H]4CC[C@@]5(C)[C@H](CC[C@@H]6[C@@H]5C[C@@H](O)[C@]5(C)[C@@H](C7=CC(=O)OC7)CC[C@]65O)C4)O[C@@H]3C)O[C@@H]2C)C[C@H](O)[C@@H]1O [Digoxin]
- number of gut (large intestine) Th17 cells: reduction
